How the values were obtained:
Assay in all cases: Competitive isoTOP-ABPP in situ (fragment-treated cells)
Format in all cases: cell-based
[1] = target: cysteines in MDA-MB-231 and Ramos cells (Homo sapiens, UniProt P04406)
[2] = target: T1, cysteines in MDA-MB-231 and Ramos cells (Homo sapiens, UniProt P22307)
T1 sequence (P22307 1-547): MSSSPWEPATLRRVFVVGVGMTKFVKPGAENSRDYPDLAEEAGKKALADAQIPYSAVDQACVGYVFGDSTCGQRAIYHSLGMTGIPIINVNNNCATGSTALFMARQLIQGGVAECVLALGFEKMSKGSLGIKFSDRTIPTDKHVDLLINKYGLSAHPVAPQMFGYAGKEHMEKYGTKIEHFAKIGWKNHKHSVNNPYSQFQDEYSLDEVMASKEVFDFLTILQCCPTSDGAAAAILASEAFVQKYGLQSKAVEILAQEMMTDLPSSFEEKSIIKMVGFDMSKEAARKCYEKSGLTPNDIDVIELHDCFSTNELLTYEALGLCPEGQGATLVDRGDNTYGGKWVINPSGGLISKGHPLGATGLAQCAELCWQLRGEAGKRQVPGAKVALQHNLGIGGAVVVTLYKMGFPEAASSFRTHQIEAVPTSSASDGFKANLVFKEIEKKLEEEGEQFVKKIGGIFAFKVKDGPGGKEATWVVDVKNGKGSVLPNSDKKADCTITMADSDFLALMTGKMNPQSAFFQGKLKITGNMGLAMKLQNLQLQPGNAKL

[3] = target: T2, cysteines in MDA-MB-231 and Ramos cells (Homo sapiens, UniProt P46734)
T2 sequence (P46734 1-347): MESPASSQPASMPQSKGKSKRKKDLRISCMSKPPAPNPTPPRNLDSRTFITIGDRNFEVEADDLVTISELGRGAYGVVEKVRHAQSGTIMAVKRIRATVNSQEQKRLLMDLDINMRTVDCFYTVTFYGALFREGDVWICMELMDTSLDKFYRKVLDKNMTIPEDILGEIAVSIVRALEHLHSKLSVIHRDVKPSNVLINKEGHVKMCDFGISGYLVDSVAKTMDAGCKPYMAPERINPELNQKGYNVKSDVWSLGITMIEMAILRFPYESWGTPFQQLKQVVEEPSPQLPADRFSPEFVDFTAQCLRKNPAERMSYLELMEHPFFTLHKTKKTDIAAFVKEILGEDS

[4] = target: T3, cysteines in MDA-MB-231 and Ramos cells (Homo sapiens, UniProt Q96S55)
T3 sequence (Q96S55 1-665): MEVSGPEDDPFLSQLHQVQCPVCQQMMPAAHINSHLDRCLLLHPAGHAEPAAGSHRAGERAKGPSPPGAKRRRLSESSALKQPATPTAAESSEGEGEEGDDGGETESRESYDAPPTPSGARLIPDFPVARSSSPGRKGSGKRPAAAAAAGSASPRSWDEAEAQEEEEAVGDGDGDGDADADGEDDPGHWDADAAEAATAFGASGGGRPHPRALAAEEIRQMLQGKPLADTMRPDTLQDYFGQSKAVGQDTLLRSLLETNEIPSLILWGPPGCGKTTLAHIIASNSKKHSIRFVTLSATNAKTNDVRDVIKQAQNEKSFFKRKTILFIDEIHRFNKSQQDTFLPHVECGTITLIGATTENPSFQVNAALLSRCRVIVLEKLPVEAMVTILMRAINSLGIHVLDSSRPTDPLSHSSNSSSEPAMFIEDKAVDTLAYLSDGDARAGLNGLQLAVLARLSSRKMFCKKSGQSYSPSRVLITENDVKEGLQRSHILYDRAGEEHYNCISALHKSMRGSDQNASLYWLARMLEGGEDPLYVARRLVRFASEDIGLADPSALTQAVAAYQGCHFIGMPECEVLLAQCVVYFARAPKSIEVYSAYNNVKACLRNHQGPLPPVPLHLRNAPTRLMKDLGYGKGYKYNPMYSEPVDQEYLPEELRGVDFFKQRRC

[5] = target: T4, cysteines in MDA-MB-231 and Ramos cells (Homo sapiens, UniProt Q9BQ69)
T4 sequence (Q9BQ69 1-325): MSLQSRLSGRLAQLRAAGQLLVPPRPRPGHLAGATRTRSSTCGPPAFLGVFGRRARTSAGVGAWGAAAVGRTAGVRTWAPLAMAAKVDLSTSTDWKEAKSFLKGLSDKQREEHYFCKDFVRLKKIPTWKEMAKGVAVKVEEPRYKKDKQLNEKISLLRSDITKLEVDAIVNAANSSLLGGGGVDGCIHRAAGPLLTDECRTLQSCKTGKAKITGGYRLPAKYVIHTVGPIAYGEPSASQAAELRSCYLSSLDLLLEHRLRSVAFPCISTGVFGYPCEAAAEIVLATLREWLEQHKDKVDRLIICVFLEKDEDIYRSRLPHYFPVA

[6] = target: cysteines in MDA-MB-231 and Ramos cells (Homo sapiens, UniProt Q9NUY8)
Chain of cysteines in MDA-MB-231 and Ramos cells (Homo sapiens, UniProt Q9NUY8) (Q9NUY8 whole entry): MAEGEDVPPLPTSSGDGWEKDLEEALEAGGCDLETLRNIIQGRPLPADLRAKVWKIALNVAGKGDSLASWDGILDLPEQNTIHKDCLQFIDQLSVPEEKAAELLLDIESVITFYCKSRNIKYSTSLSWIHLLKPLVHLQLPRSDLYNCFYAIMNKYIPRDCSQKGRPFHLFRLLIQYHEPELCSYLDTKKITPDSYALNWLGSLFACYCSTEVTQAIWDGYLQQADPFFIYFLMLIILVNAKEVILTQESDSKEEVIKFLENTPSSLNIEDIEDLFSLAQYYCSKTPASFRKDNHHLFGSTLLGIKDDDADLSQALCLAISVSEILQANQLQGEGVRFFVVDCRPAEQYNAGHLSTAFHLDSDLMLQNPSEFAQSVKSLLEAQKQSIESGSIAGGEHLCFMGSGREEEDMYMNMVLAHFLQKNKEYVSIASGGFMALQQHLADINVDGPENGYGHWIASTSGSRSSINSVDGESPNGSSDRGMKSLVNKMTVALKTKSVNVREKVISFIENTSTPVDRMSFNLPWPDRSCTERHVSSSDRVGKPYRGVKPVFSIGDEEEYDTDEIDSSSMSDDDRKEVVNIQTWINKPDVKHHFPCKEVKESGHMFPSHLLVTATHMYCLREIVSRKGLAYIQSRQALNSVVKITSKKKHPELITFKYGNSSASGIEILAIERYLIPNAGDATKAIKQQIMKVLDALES

Chain of cysteines in MDA-MB-231 and Ramos cells (Homo sapiens, UniProt P04406) (P04406 whole entry): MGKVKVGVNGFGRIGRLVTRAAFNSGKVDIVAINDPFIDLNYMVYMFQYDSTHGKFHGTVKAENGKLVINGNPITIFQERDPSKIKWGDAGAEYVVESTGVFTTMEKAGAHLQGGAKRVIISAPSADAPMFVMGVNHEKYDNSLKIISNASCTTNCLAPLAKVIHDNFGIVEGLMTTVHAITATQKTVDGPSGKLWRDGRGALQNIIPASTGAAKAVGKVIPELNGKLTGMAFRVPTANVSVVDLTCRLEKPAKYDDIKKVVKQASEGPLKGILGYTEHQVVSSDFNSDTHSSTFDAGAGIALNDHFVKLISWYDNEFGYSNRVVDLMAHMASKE

isoTOP-ABPP ratio P04406_C152 ([1]; 200 μM, insitu, 231) | isoTOP-ABPP ratio P22307_C71 ([2]; 200 μM, insitu, 231) | isoTOP-ABPP ratio P46734_C207 ([3]; 200 μM, insitu, 231) | isoTOP-ABPP ratio Q96S55_C272 ([4]; 200 μM, insitu, 231) | isoTOP-ABPP ratio Q9BQ69_C186 ([5]; 200 μM, insitu, 231) | isoTOP-ABPP ratio Q9NUY8_C283 ([6]; 200 μM, insitu, 231) | further results | SMILES
– | – | – | – | – | – | isoTOP-ABPP reactivity P04406_C152 GAPDH ([1]; 200 μM, insitu, 231): 20.0; isoTOP-ABPP reactivity P22307_C71 SCP2 ([2]; 200 μM, insitu, 231): 3.2; isoTOP-ABPP reactivity P22307_C307 SCP2 ([2]; 200 μM, insitu, 231): 20.0; isoTOP-ABPP reactivity P46734_C207 MAP2K3 ([3]; 200 μM, insitu, 231): 0.8; isoTOP-ABPP reactivity Q96S55_C272 WRNIP1 ([4]; 200 μM, insitu, 231): 2.2; isoTOP-ABPP reactivity Q9BQ69_C186 MACROD1 ([5]; 200 μM, insitu, 231): 4.8; isoTOP-ABPP reactivity Q9NUY8_C283 TBC1D23 ([6]; 200 μM, insitu, 231): 4.1 | COc1ccc2c(c1)CCCN2C(=O)CCl [compound 2]
– | – | – | – | – | – | isoTOP-ABPP reactivity P04406_C152 GAPDH ([1]; 100 μM in situ 231): 1.6; isoTOP-ABPP reactivity P22307_C71 SCP2 ([2]; 100 μM in situ 231): 2.7; isoTOP-ABPP reactivity P22307_C94 SCP2 ([2]; 100 μM in situ 231): 20.0; isoTOP-ABPP reactivity P22307_C307 SCP2 ([2]; 100 μM in situ 231): 20.0; isoTOP-ABPP reactivity P46734_C207 MAP2K3 ([3]; 100 μM in situ 231): 0.6; isoTOP-ABPP reactivity Q96S55_C272 WRNIP1 ([4]; 100 μM in situ 231): 3.7; isoTOP-ABPP reactivity Q9BQ69_C186 MACROD1 ([5]; 100 μM in situ 231): 1.8; isoTOP-ABPP reactivity Q9NUY8_C283 TBC1D23 ([6]; 100 μM in situ 231): 2.1 | COc1ccc(C2CC(c3cccs3)=NN2C(=O)CCl)cc1 (stereo not shown) [compound 4]
– | – | – | – | – | – | isoTOP-ABPP reactivity P04406_C152 GAPDH ([1]; 200 μM, insitu, 231): 1.1; isoTOP-ABPP reactivity P22307_C71 SCP2 ([2]; 200 μM, insitu, 231): 20.0; isoTOP-ABPP reactivity P22307_C307 SCP2 ([2]; 200 μM, insitu, 231): 20.0; isoTOP-ABPP reactivity P46734_C207 MAP2K3 ([3]; 200 μM, insitu, 231): 0.8; isoTOP-ABPP reactivity Q96S55_C272 WRNIP1 ([4]; 200 μM, insitu, 231): 1.2; isoTOP-ABPP reactivity Q9BQ69_C186 MACROD1 ([5]; 200 μM, insitu, 231): 5.0; isoTOP-ABPP reactivity Q9NUY8_C283 TBC1D23 ([6]; 200 μM, insitu, 231): 4.9 | COc1cc2c(cc1OC)CN(C(=O)CCl)CC2 [compound 8]
– | – | – | – | – | – | isoTOP-ABPP reactivity P04406_C152 GAPDH ([1]; 200 μM, insitu, 231): 1.7; isoTOP-ABPP reactivity P46734_C207 MAP2K3 ([3]; 200 μM, insitu, 231): 3.3; isoTOP-ABPP reactivity Q96S55_C272 WRNIP1 ([4]; 200 μM, insitu, 231): 4.5; isoTOP-ABPP reactivity Q9BQ69_C186 MACROD1 ([5]; 200 μM, insitu, 231): 1.2; isoTOP-ABPP reactivity Q9NUY8_C283 TBC1D23 ([6]; 200 μM, insitu, 231): 2.1 | O=C(CCl)N1CCC(Cc2ccccc2)CC1 [compound 9]
1.0 | 8.3 | 0.8 | 1.2 | 2.4 | 2.0 | isoTOP-ABPP ratio P04406_C152 ([1]; 200 μM, insitu, ramos): 0.9 | O=C(CCl)N1CCN(S(=O)(=O)c2ccccc2F)CC1 [compound 10]
– | – | – | – | – | – | isoTOP-ABPP ratio P04406_C152 ([1]; 100 μM in situ 231): 0.8; isoTOP-ABPP ratio P22307_C71 ([2]; 100 μM in situ 231): 2.0; isoTOP-ABPP ratio, cysteine P22307_C94 ([2]; 100 μM in situ 231): 3.3; isoTOP-ABPP ratio, cysteine P22307_C307 ([2]; 100 μM in situ 231): 2.9; isoTOP-ABPP ratio P46734_C207 ([3]; 100 μM in situ 231): 0.6; isoTOP-ABPP ratio Q9BQ69_C186 ([5]; 100 μM in situ 231): 1.0; isoTOP-ABPP ratio Q9NUY8_C283 ([6]; 100 μM in situ 231): 1.1 | Cn1cc(S(=O)(=O)N2CCOCC2)cc1C(=O)NC(=O)CCl [compound 11]
0.9 | 3.7 | 0.7 | 2.4 | 2.7 | 2.9 | isoTOP-ABPP ratio, cysteine P22307_C94 ([2]; 200 μM, insitu, 231): 20.0; isoTOP-ABPP ratio, cysteine P22307_C307 ([2]; 200 μM, insitu, 231): 20.0 | O=C(CCl)NC(=O)NC12CC3CC(CC(C3)C1)C2 [compound 12]
0.9 | 4.9 | 0.8 | 0.7 | 1.4 | 1.1 | isoTOP-ABPP ratio P04406_C152 ([1]; 200 μM, insitu, ramos): 0.9; isoTOP-ABPP ratio Q9NUY8_C283 ([6]; 200 μM, insitu, ramos): 1.1 | O=C(CCl)NCCc1c[nH]c2ccccc12 [compound 13]
1.3 | 8.3 | 0.9 | 1.3 | 1.4 | 0.8 | isoTOP-ABPP ratio, cysteine P22307_C307 ([2]; 200 μM, insitu, 231): 20.0 | O=C(CCl)NC12CC3CC(CC(C3)C1)C2 [compound 21]
0.5 | 20.0 | 0.8 | 0.9 | 2.4 | 0.6 | – | CC(C)CCOCCNC(=O)CCl [compound 27]
0.8 | – | – | 0.5 | – | 0.7 | isoTOP-ABPP ratio P22307_C94 ([2]; 200 μM, insitu, 231): 20.0 | COc1ccccc1OCCNC(=O)CCl [compound 28]
– | – | – | – | – | – | isoTOP-ABPP ratio P04406_C152 ([1]; 200 μM, insitu, ramos): 1.2; isoTOP-ABPP ratio Q9BQ69_C186 ([5]; 200 μM, insitu, ramos): 1.5; isoTOP-ABPP ratio Q9NUY8_C283 ([6]; 200 μM, insitu, ramos): 1.3 | O=C(CCl)N1CCN(CC(=O)N2CCOCC2)CC1 [compound 29]
0.8 | – | – | – | 0.5 | 0.6 | isoTOP-ABPP ratio P04406_C152 ([1]; 200 μM, insitu, ramos): 1.0 | C=CC(=O)N(Cc1cccnc1)c1cc(C(F)(F)F)cc(C(F)(F)F)c1 [compound 31]
0.9 | – | 1.5 | 1.3 | 3.6 | 1.0 | – | C=CC(=O)Nc1cc(F)c(N2CCN(C(=O)OC(C)(C)C)CC2)c(F)c1 [compound 38]
0.6 | 1.2 | 0.7 | 0.8 | 1.2 | 0.7 | isoTOP-ABPP ratio P22307_C307 ([2]; 200 μM, insitu, 231): 1.1 | Cc1ccc(C=C(C#N)C(=O)NCCN2CCOCC2)cc1 [compound 41]
20.0 | 16.8 | 1.5 | 2.5 | 3.3 | 2.7 | isoTOP-ABPP ratio P22307_C94 ([2]; 200 μM, insitu, 231): 20.0 | CC1CCc2ccccc2N1C(=O)CCl (stereo not shown) [compound 45]
1.0 | 5.6 | 0.7 | 0.9 | 1.2 | 2.1 | – | O=C(CCl)Nc1cccc2ncccc12 [compound 51]

From patent US10670605B2, “Cysteine reactive probes and uses thereof” (The Scripps Research Institute, priority 2015, dated 2020)
